Patent US10562920B2, “Ln(III) and Ga(III) metallacrown complexes” (The Regents of the University of Michigan, priority 2015, dated 2020)
“And” between values parts separate entries of the source, which are not always exact repeats. Identical values can stand only once.

Columns and labels:
Assay type in all cases: physicochemical
[1] = Quantum yields by absolute method using an integration sphere
Protocol: (§1) Luminescence data were collected on samples placed into 2.4 mm i.d. quartz capillaries or quartz Suprasil cells. Emission and excitation spectra were measured on a Horiba-Jobin-YvonFluorolog 3 spectrofluorimeter equipped with either a visible photomultiplier tube (PMT) (220-800 nm, R928P; Hamamatsu), a NIR solid-state InGaAs detector cooled to 77 K (800-1600 nm, DSS-IGA020L; Jobin-Yvon), or NIR PMTs (950-1450 nm, H10330-45; 950-1650 nm, H10330-75; Hamamatsu). All spectra were corrected for instrumental functions. Luminescence lifetimes were determined under excitation at 355 nm provided by a Nd:YAG laser (YG 980; Quantel), while the signal was detected in the NIR by the aforementioned PMT (H10330-75). The output signal from the detectors was then fed to a 500 MHz bandpass digital oscilloscope (TDS 754C; Tektronix) and then transferred to a PC for treatment with Origin 8®. Luminescence lifetimes are averages of at least three independent measurements. Quantum yields were determined with a Fluorolog 3 spectrofluorimeter according to an absolute method using an integration sphere (GMP SA). Each sample was measured several times under slightly different experimental conditions. Estimated experimental error for quantum yields determination is 10%.

[2] = Luminescence lifetimes under excitation at 355 nm; conditions: for τobs/μs: Ga8Ln2(shi)8, solid state
Protocol: as §1

[3] = Ligand triplet state from phosphorescence of Gd3+ analogues; conditions: for ΔE (cm^−1), energy gap between ligand triplet state and Ln3+ emissive state: T1 = 22 170 cm^−1, Ga4Ln(shi)4; for ligand triplet state (T1, 0-0 component of phosphorescence), wavelength / ligand triplet state energy (T1, 0-0 component of phosphorescence): solid state, 77 K, excitation 350 nm
Protocol: as §1
Phosphorescence can be observed by recording the signal emitted from Ga4Gd(shi)4 in time-resolved mode in the solid state at 77K upon excitation at 350 nm and using a 200 μS delay after the excitation flash (FIG. 9). The 0-0 component of this band represents the energy level of the ligand's triplet state (T1=22,170 cm^−1, 451 nm) which is attributed to the energy level responsible for the main contribution of the transfer to the Ln^3+. The T1 level is sufficiently high in energy to populate the excited states of a wide range of visible and NIR-emitting Ln^3+.
Since the Ga8Ln2(shi)8 dimer compounds were insoluble in all solvents, the solid state photophysical data alone were collected. As with the Ga4Gd(shi)4 compound, the Ga8Gd2(shi)8 complex may be used to examine the ligand-based photophysical properties. […] The solid state ligand phosphorescence was obtained at 77 K using an excitation wavelength of 350 nm and a 100 μs delay (FIG. 11). The profile of the phosphorescence is similar to that of Ga4Gd(shi)4 (FIG. 9), which was expected, since both compounds are formed by the same framework ligand, H3shi. The 0-0 transition was determined to be located at 455 nm, or 21 978 cm^−1. This triplet state energy is slightly lower than that of the Ga4Gd(shi)4 compound (22 170 cm^−1), but still is sufficiently high in energy to sensitize visible (Dy^3+, Tb^3+, Sm^3+) and/or NIR emitting (Dy^3+, Sm^3+, Ho^3+, Yb^3+, Pr^3+, Nd^3+, Er^3+) lanthanides.

[4] = Hydration number q from lifetimes in deuterated and protic solvents
Text: One parameter that can be obtained from the recording of luminescence lifetimes is the hydration number q. […] This non-zero q value is particularly detrimental for the intensity of the luminescence (and to the corresponding quantum yield values) of NIR-emitting lanthanides since the overtones of high-energy vibrations of the solvent molecules create a route for non-radiative deactivation.

[5] = Emission spectra under ligand excitation at 350 nm; conditions: Ga8Ln2(shi)8, solid state
Protocol: as §1
Using an excitation wavelength of 350 nm, both visible and NIR emission arising from f-f transitions of different lanthanide ions can be observed (FIG. 13). In general, quantum yields are lower for Ga8Ln2(shi)8 MCs compared to […] (Table 3) except for Ho^3+ analogues which quantum yield is increased by 1.65 times reaching 3.3(1)·10^−3%.

[6] = from kCH3OH − kCD3OD, equations of footnotes b, c, e, g
[7] = Ga8Ln2(shi)8, solid state, excitation 350 nm

[DyGa4(shi)4(H2shi)2(C5H5N)4(NO3)].(C5H5N)2 [Ga4Dyshi6]
QLn^L/% VIS (only Dy) ([1]; solid state Ga4Ln(shi)6, only Dy): 0.222(6) (only Dy) % | QLn^L/% VIS (total) ([1]; solid state Ga4Ln(shi)6, total): 0.308(8) (total) % | τ/μs ([2]; solid state Ga4Ln(shi)6): 3.36(6) μs

[ErGa4(shi)4(C6H5CO2)4(C5H5N)(CH3OH)].C5H6N.0.5C5H5N [Ga4Er(shi)4]
QLn^L (%) (NIR) ([1]; Ga4Ln(shi)4, CD3OD): 4.5(3)·10^−2% | QLn^L (%) (NIR) ([1]; Ga4Ln(shi)4, Solid): 4.4(1)·10^−2% | τobs (μs) ([2]; Ga4Ln(shi)4, CD3OD): 1.74(1) μs | τobs (μs) ([2]; Ga4Ln(shi)4, Solid): 6.75(3) μs | ΔE (cm^−1), energy gap between ligand triplet state and Ln3+ emissive state [3]: 15 470 cm^−1

[ErGa4(shi)4(H2shi)2(C5H5N)5].(NO3).(C5H5N) [Ga4Ershi6]
QLn^L/% NIR ([1]; solid state Ga4Ln(shi)6): 1.55(3) · 10^−3% | τ/μs ([2]; solid state Ga4Ln(shi)6): 0.220(3) μs

[ErGa6(shi)7(Hshi)(H2shi)(C6H16N)3(C5H5N)2].6H2O [Ga6Er(shi)9]
QLn^L/% ([1]; Ga6Ln(shi)9, solid state): 7.1(2) · 10^−3% | τ/μs ([2]; Ga6Ln(shi)9, solid state): 0.905(8) μs

[Ga4Dy(shi)4(C6H5CO2)4(C5H5N)(CH3OH)].C5H6N.C5H5N.CH3OH
QLn^L (%) (NIR) ([1]; Ga4Ln(shi)4, CD3OD): 6.0(1) · 10^−2% | QLn^L (%) (visible) ([1]; Ga4Ln(shi)4, CD3OD): 0.78(1) % | QLn^L (%) (NIR) ([1]; Ga4Ln(shi)4, CH3OH): 2.4(1) · 10^−2% | QLn^L (%) (visible) ([1]; Ga4Ln(shi)4, CH3OH): 0.38(1) % | QLn^L (%) (NIR) ([1]; Ga4Ln(shi)4, Solid): 0.21(1) % | QLn^L (%) (visible) ([1]; Ga4Ln(shi)4, Solid): 2.10(1) % | q (hydration number) [4, 6]: 0.7^e | τobs (μs) ([2]; Ga4Ln(shi)4, CD3OD): 25.5(7) μs | τobs (μs) ([2]; Ga4Ln(shi)4, CH3OH): 12.0(1) μs | τobs (μs) ([2]; Ga4Ln(shi)4, Solid): 21.2(2) μs | ΔE (cm^−1), energy gap between ligand triplet state and Ln3+ emissive state [3]: 1 070 cm^−1

[Ga4Eu(shi)4(C6H5CO2)4(C5H5N)(CH3OH)].C5H6N.C5H5N.CH3OH
QLn^L (%) (visible) ([1]; Ga4Ln(shi)4, Solid): 1.59(4) · 10^−2% | ΔE (cm^−1), energy gap between ligand triplet state and Ln3+ emissive state [3]: 4 910 cm^−1

[Ga4Gd(shi)4(C6H5CO2)4(C5H5N)(CH3OH)].C5H6N.C5H5N.CH3OH
ligand triplet state (T1, 0-0 component of phosphorescence), wavelength [3]: 451 nm | ligand triplet state energy (T1, 0-0 component of phosphorescence) [3]: 22,170 cm^−1 and 22 170 cm^−1

[Ga4Sm(shi)4(C6H5CO2)4(C5H5N)(CH3OH)].C5H6N.C5H5N.CH3OH
QLn^L (%) (NIR) ([1]; Ga4Ln(shi)4, CD3OD): 0.298(1) % | QLn^L (%) (visible) ([1]; Ga4Ln(shi)4, CD3OD): 2.33(5) % | QLn^L (%) (NIR) ([1]; Ga4Ln(shi)4, CH3OH): 2.65(6) · 10^−2% | QLn^L (%) (visible) ([1]; Ga4Ln(shi)4, CH3OH): 0.252(1) % | QLn^L (%) (NIR) ([1]; Ga4Ln(shi)4, Solid): 0.450(4) % | QLn^L (%) (visible) ([1]; Ga4Ln(shi)4, Solid): 2.46(8) % | q (hydration number) [4, 6]: 0.8^b | τobs (μs) ([2]; Ga4Ln(shi)4, CD3OD): 255(1) μs | τobs (μs) ([2]; Ga4Ln(shi)4, CH3OH): 27.6(1) μs | τobs (μs) ([2]; Ga4Ln(shi)4, Solid): 148(1) μs | ΔE (cm^−1), energy gap between ligand triplet state and Ln3+ emissive state [3]: 4 270 cm^−1

[Ga4Tb(shi)4(C6H5CO2)4(C5H5N)(CH3OH)].C5H6N.C5H5N.CH3OH
QLn^L (%) (visible) ([1]; Ga4Ln(shi)4, CD3OD): 28.6(1) % | QLn^L (%) (visible) ([1]; Ga4Ln(shi)4, CH3OH): 23.7(3) % | QLn^L (%) (visible) ([1]; Ga4Ln(shi)4, Solid): 34.7% and 34.7(1) % | q (hydration number) [4, 6]: 1.2^c | q (hydration number) ([4]; qTb = 10.0 × (kCH3OH − kCD3OD − 0.06), footnote d): 0.9^d | τobs (μs) ([2]; Ga4Ln(shi)4, CD3OD): 1960(10) μs | τobs (μs) ([2]; Ga4Ln(shi)4, CH3OH): 1510(10) μs | τobs (μs) ([2]; Ga4Ln(shi)4, Solid): 1080(10) μs | ΔE (cm^−1), energy gap between ligand triplet state and Ln3+ emissive state [3]: 1 770 cm^−1

[Ga8Dy2(shi)8(isophthalate)4(DMF)6].8DMF.2H2O
QLn^L (%) (NIR) [1, 7]: 7.5(1) · 10^−2% | QLn^L (%) (visible) [1, 7]: 0.85(1) % | λem/nm [5]: 575 nm | τobs/μs [2]: 15.0(1) μs

[Ga8Er2(shi)8(isophthalate)4(DMF)6].8DMF.2H2O
QLn^L (%) (NIR) [1, 7]: 5.7(1) · 10^−3% | λem/nm [5]: 1525 nm | τobs/μs [2]: 5.23(2) μs

[Ga8Gd2(shi)8(isophthalate)4(DMF)6].8DMF.H2O
ligand triplet state (T1, 0-0 component of phosphorescence), wavelength [3]: 455 nm | ligand triplet state energy (T1, 0-0 component of phosphorescence) [3]: 21 978 cm^−1

[Ga8Ho2(shi)8(isophthalate)4(DMF)6].8DMF.2H2O
QLn^L (%) (NIR) [1, 7]: 3.3(1) · 10^−3% | λem/nm [5]: 978 nm | τobs/μs [2]: 0.032(1) μs

[Ga8Nd2(shi)8(isophthalate)4(DMF)6].8DMF.H2O
QLn^L (%) (NIR) [1, 7]: 0.99(2) % | λem/nm [5]: 1064 nm | τobs/μs [2]: 2.46(1) μs

[Ga8Pr2(shi)8(isophthalate)4(DMF)6].8DMF.2H2O
QLn^L (%) (NIR) [1, 7]: 9.3(1) · 10^−3% | λem/nm [5]: 1020 nm | τobs/μs [2]: 0.901(6) μs
